Article PMC7402526, “An in vitro quantitative systems pharmacology approach for deconvolving mechanisms of drug-induced, multilineage cytopenias” (PLoS Computational Biology, 2020)

How the values were obtained:
[1] = tested on: hematopoietic stem cells (HSCs); assay: Multi-lineage toxicity assay (MLTA), HSCs: concentration-response and QSP model fit; assay type: cell-based, human; conditions: Homo sapiens, Hematopoietic stem cell, 144 h
In short: (§1)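 Freeze-thawed primary human bone marrow CD34+ cells were cultured 6 days in SFEM II with a cytokine cocktail, drug added on day 0. Subsets were counted by 17-parameter flow cytometry with TruCount beads and normalized to vehicle wells. An Emax QSP model (Emax 0–2, L1 regularization) was fitted to these counts.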

B cells (B-lin) = assay: MLTA, B-lin: concentration-response and QSP model fit; assay type: cell-based, human; conditions: Homo sapiens, B-cell, 144 h
In short: as §1

monocytes (monocyte-lin) = assay: MLTA, Mono: concentration-response and QSP model fit; assay type: cell-based, human; conditions: Homo sapiens, Monocyte, 144 h
In short: as §1

[2] = tested on: monocyte progenitors (monocyte prog); assay: MLTA, MonoP: concentration-response and QSP model fit; assay type: cell-based, human; conditions: Homo sapiens, Monocyte, 144 h
In short: as §1

[3] = tested on: multi-potent progenitors (MPPs); assay: MLTA, MPPs: concentration-response and QSP model fit; assay type: cell-based, human; conditions: Homo sapiens, 144 h
In short: as §1

[4] = tested on: early erythroid cells (Eryth I); assay: MLTA, ErythI: concentration-response and QSP model fit; assay type: cell-based, human; conditions: Homo sapiens, 144 h
In short: as §1

[5] = tested on: total dead cells (totalDeadCells); assay: MLTA, total dead cells concentration-response; assay type: cell-based; conditions: Homo sapiens, 144 h, 6 days, normalized to vehicle control, read-out: total_dead normalized cell count
In short: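 Freeze-thawed primary human bone marrow CD34+ cells in SFEM II with cytokine cocktail, drug added day 0, 6 days at 37°C, 5% CO2. Live/dead counts by 17-parameter flow cytometry with DAPI exclusion, bead-normalized, volume-corrected to cells/mL. Normalized per donor to mean of six vehicle wells; 2–7 donors pooled.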

[6] = tested on: late erythroid cells (Eryth II); assay: MLTA, ErythII: concentration-response and QSP model fit; assay type: cell-based, human; conditions: Homo sapiens, 144 h
In short: as §1

[7] = QSP model fit of 6-day MLTA data

CS(=O)(=O)N1CCN(Cc2cc3nc(-c4cccc5[nH]ncc45)nc(N4CCOCC4)c3s2)CC1 [pictilisib]
EC50 [1, 7]: 289 nM | activity at 0.0002 µM ([1]; dose 0.2 nM, 6 days, normalized to vehicle control, read-out: HSCs normalized cell count): 89.1% | activity at 0.001 µM ([1]; dose 1 nM, 6 days, normalized to vehicle control, read-out: HSCs normalized cell count): 102% | activity at 0.005 µM ([1]; dose 5 nM, 6 days, normalized to vehicle control, read-out: HSCs normalized cell count): 88.5% | activity at 0.025 µM ([1]; dose 25 nM, 6 days, normalized to vehicle control, read-out: HSCs normalized cell count): 99.2% | activity at 0.1 µM ([1]; dose 100 nM, 6 days, normalized to vehicle control, read-out: HSCs normalized cell count): 58.1% | activity at 0.5 µM ([1]; dose 500 nM, 6 days, normalized to vehicle control, read-out: HSCs normalized cell count): 28.1% | activity at 2.5 µM ([1]; dose 2500 nM, 6 days, normalized to vehicle control, read-out: HSCs normalized cell count): 8.09% | Emax ([1]; parameter from QSP model fitting, read-out: Emax_drug_HSC): 48.6% | EC50 (B cells (B-lin); [7]): 91.3 nM | activity at 0.0002 µM (B cells (B-lin); dose 0.2 nM, 6 days, normalized to vehicle control, read-out: B-lin normalized cell count): 93.8% | activity at 0.001 µM (B cells (B-lin); dose 1 nM, 6 days, normalized to vehicle control, read-out: B-lin normalized cell count): 107% | activity at 0.005 µM (B cells (B-lin); dose 5 nM, 6 days, normalized to vehicle control, read-out: B-lin normalized cell count): 81.5% | activity at 0.025 µM (B cells (B-lin); dose 25 nM, 6 days, normalized to vehicle control, read-out: B-lin normalized cell count): 65.5% | activity at 0.1 µM (B cells (B-lin); dose 100 nM, 6 days, normalized to vehicle control, read-out: B-lin normalized cell count): 37.5% | activity at 0.5 µM (B cells (B-lin); dose 500 nM, 6 days, normalized to vehicle control, read-out: B-lin normalized cell count): 16.2% | activity at 2.5 µM (B cells (B-lin); dose 2500 nM, 6 days, normalized to vehicle control, read-out: B-lin normalized cell count): 6.19% | Emax (B cells (B-lin); parameter from QSP model fitting, read-out: Emax_drug_B): 51.4% | EC50 (monocytes (monocyte-lin); [7]): 1020 nM | activity at 0.0002 µM (monocytes (monocyte-lin); dose 0.2 nM, 6 days, normalized to vehicle control, read-out: Mon normalized cell count): 92.5% | activity at 0.001 µM (monocytes (monocyte-lin); dose 1 nM, 6 days, normalized to vehicle control, read-out: Mon normalized cell count): 90.6% | activity at 0.005 µM (monocytes (monocyte-lin); dose 5 nM, 6 days, normalized to vehicle control, read-out: Mon normalized cell count): 79.5% | activity at 0.025 µM (monocytes (monocyte-lin); dose 25 nM, 6 days, normalized to vehicle control, read-out: Mon normalized cell count): 77.6% | activity at 0.1 µM (monocytes (monocyte-lin); dose 100 nM, 6 days, normalized to vehicle control, read-out: Mon normalized cell count): 61.1% | activity at 0.5 µM (monocytes (monocyte-lin); dose 500 nM, 6 days, normalized to vehicle control, read-out: Mon normalized cell count): 30.9% | activity at 2.5 µM (monocytes (monocyte-lin); dose 2500 nM, 6 days, normalized to vehicle control, read-out: Mon normalized cell count): 12.5% | Emax (monocytes (monocyte-lin); parameter from QSP model fitting, read-out: Emax_drug_Mono): 3.93% | EC50 ([2]; QSP model fit of 6-day MLTA data, read-out: EC50MonoP): 117 nM | activity at 0.0002 µM ([2]; dose 0.2 nM, 6 days, normalized to vehicle control, read-out: MonoPs normalized cell count): 105% | activity at 0.001 µM ([2]; dose 1 nM, 6 days, normalized to vehicle control, read-out: MonoPs normalized cell count): 94.3% | activity at 0.005 µM ([2]; dose 5 nM, 6 days, normalized to vehicle control, read-out: MonoPs normalized cell count): 87.2% | activity at 0.025 µM ([2]; dose 25 nM, 6 days, normalized to vehicle control, read-out: MonoPs normalized cell count): 74.8% | activity at 0.1 µM ([2]; dose 100 nM, 6 days, normalized to vehicle control, read-out: MonoPs normalized cell count): 49% | activity at 0.5 µM ([2]; dose 500 nM, 6 days, normalized to vehicle control, read-out: MonoPs normalized cell count): 30.2% | activity at 2.5 µM ([2]; dose 2500 nM, 6 days, normalized to vehicle control, read-out: MonoPs normalized cell count): 11.3% | Emax ([2]; parameter from QSP model fitting, read-out: Emax_drug_MonoP): 140% | activity at 0.0002 µM ([3]; dose 0.2 nM, 6 days, normalized to vehicle control, read-out: MPPs normalized cell count): 89.3% | activity at 0.001 µM ([3]; dose 1 nM, 6 days, normalized to vehicle control, read-out: MPPs normalized cell count): 82.2% | activity at 0.005 µM ([3]; dose 5 nM, 6 days, normalized to vehicle control, read-out: MPPs normalized cell count): 71.7% | activity at 0.025 µM ([3]; dose 25 nM, 6 days, normalized to vehicle control, read-out: MPPs normalized cell count): 67.2% | activity at 0.1 µM ([3]; dose 100 nM, 6 days, normalized to vehicle control, read-out: MPPs normalized cell count): 49.1% | activity at 0.5 µM ([3]; dose 500 nM, 6 days, normalized to vehicle control, read-out: MPPs normalized cell count): 38.2% | activity at 2.5 µM ([3]; dose 2500 nM, 6 days, normalized to vehicle control, read-out: MPPs normalized cell count): 28% | Emax ([3]; parameter from QSP model fitting, read-out: Emax_drug_MPP): 0.03% | activity at 0.0002 µM ([4]; dose 0.2 nM, 6 days, normalized to vehicle control, read-out: ErythI normalized cell count): 110% | activity at 0.001 µM ([4]; dose 1 nM, 6 days, normalized to vehicle control, read-out: ErythI normalized cell count): 107% | activity at 0.005 µM ([4]; dose 5 nM, 6 days, normalized to vehicle control, read-out: ErythI normalized cell count): 107% | activity at 0.025 µM ([4]; dose 25 nM, 6 days, normalized to vehicle control, read-out: ErythI normalized cell count): 100% | activity at 0.1 µM ([4]; dose 100 nM, 6 days, normalized to vehicle control, read-out: ErythI normalized cell count): 92.8% | activity at 0.5 µM ([4]; dose 500 nM, 6 days, normalized to vehicle control, read-out: ErythI normalized cell count): 65.5% | activity at 2.5 µM ([4]; dose 2500 nM, 6 days, normalized to vehicle control, read-out: ErythI normalized cell count): 27.5% | Emax ([4]; parameter from QSP model fitting, read-out: Emax_drug_ErythroidI): 0.03% | activity at 0.0002 µM ([5]; dose 0.2 nM): 105% | activity at 0.001 µM ([5]; dose 1 nM): 110% | activity at 0.005 µM ([5]; dose 5 nM): 91.5% | activity at 0.025 µM ([5]; dose 25 nM): 93.1% | activity at 0.1 µM ([5]; dose 100 nM): 55.3% | activity at 0.5 µM ([5]; dose 500 nM): 40.1% | activity at 2.5 µM ([5]; dose 2500 nM): 34.3% | EC50 ([6]; QSP model fit of 6-day MLTA data, read-out: EC50ErythII): 191 nM | activity at 0.0002 µM ([6]; dose 0.2 nM, 6 days, normalized to vehicle control, read-out: ErythII normalized cell count): 94.6% | activity at 0.001 µM ([6]; dose 1 nM, 6 days, normalized to vehicle control, read-out: ErythII normalized cell count): 92% | activity at 0.005 µM ([6]; dose 5 nM, 6 days, normalized to vehicle control, read-out: ErythII normalized cell count): 90% | activity at 0.025 µM ([6]; dose 25 nM, 6 days, normalized to vehicle control, read-out: ErythII normalized cell count): 86.7% | activity at 0.1 µM ([6]; dose 100 nM, 6 days, normalized to vehicle control, read-out: ErythII normalized cell count): 55.5% | activity at 0.5 µM ([6]; dose 500 nM, 6 days, normalized to vehicle control, read-out: ErythII normalized cell count): 23.3% | activity at 2.5 µM ([6]; dose 2500 nM, 6 days, normalized to vehicle control, read-out: ErythII normalized cell count): 5.88% | Emax ([6]; parameter from QSP model fitting, read-out: Emax_drug_ErythroidII): 13.6%
